ChEMBL document CHEMBL1134487, “Design, synthesis, and biological evaluation of analogues of the antitumor agent, 2-(4-[(7-chloro-2-quinoxalinyl)oxy]phenoxy)propionic acid (XK469)” (2001)
Active and inactive are the calls of the source. The calls are words filed in the database; no cut-off is given here.

How the values were obtained:
Mus musculus [1] = assay: In vivo activity tested against C3H mice bearing panc-03 murine tumor measured as log Kill value was based on tumors that grew at 561 mg/kg (po); None; type: functional, organism-based; set-up: dose 561 mg/kg
Mus musculus [2] = assay: In vivo activity tested against C3H mice bearing panc-03 murine tumor measured as % treated/control calculated at 561 mg/kg (po); type: functional
Mus musculus [3] = assay: In vivo activity tested against C3H mice bearing panc-03 murine tumor measured as log Kill value was based on tumors that grew at 1010 mg/kg (po); type: functional, organism-based; set-up: dose 1010 mg/kg
Mus musculus [4] = assay: In vivo activity tested against C3H mice bearing panc-03 murine tumor measured as body weight loss at 1010 mg/kg (po); type: functional
Mus musculus [5] = assay: In vivo activity tested against C3H mice bearing panc-03 murine tumor measured as activity rating at 561 mg/kg (po); type: functional
Mus musculus [6] = assay: In vivo activity tested against C3H mice bearing panc-03 murine tumor measured as % treated/control calculated at 1010 mg/kg (po); type: functional
Mus musculus [7] = assay: In vivo activity tested against C3H mice bearing panc-03 murine tumor measured as body weight loss at 561 mg/kg (po); type: functional
Mus musculus [8] = assay: In vivo activity tested against C3H mice bearing colon adenocarcinoma -38(colon-38) tumor measured as % treated/control calculated at 2686 mg/kg (po); type: functional
Mus musculus [9] = assay: In vivo activity tested against C3H mice bearing colon adenocarcinoma -38(colon-38) tumor measured as activity rating at 2686 mg/kg (po); type: functional
Mus musculus [10] = assay: In vivo activity tested against C3H mice bearing colon adenocarcinoma -38(colon-38) tumor measured as body weight loss at 2686 mg/kg (po); type: functional
Mus musculus [11] = assay: In vivo activity tested against C3H mice bearing colon adenocarcinoma -38(colon-38) tumor measured as log Kill value was based on tumors that grew at 2686 mg/kg (po); type: functional, organism-based; set-up: dose 2686 mg/kg
Mus musculus [12] = assay: In vivo activity tested against C3H mice bearing colon adenocarcinoma -38(colon-38) tumor measured as log Kill value was based on tumors that grew at 769 mg/kg (po); type: functional, organism-based; set-up: dose 769 mg/kg
Mus musculus [13] = assay: In vivo activity tested against C3H mice bearing colon adenocarcinoma -38(colon-38) tumor measured as % treated/control calculated at 769 mg/kg (po); type: functional
Mus musculus [14] = assay: In vivo activity tested against C3H mice bearing colon adenocarcinoma -38(colon-38) tumor measured as body weight loss at 769 mg/kg (po); type: functional
Mus musculus [15] = assay: In vivo activity tested against C3H mice bearing colon adenocarcinoma -38(colon-38) tumor measured as activity rating at 769 mg/kg (po); type: functional
Mus musculus [16] = assay: In vivo activity tested against C3H mice bearing panc-03 murine tumor measured as % treated/control calculated at 1320 mg/kg (po); type: functional
Mus musculus [17] = assay: In vivo activity tested against C3H mice bearing panc-03 murine tumor measured as log Kill value was based on tumors that grew at 1320 mg/kg (po); type: functional, organism-based; set-up: dose 1320 mg/kg
Mus musculus [18] = assay: In vivo activity tested against C3H mice bearing panc-03 murine tumor measured as body weight loss at 1320 mg/kg (po); type: functional
Mus musculus [19] = assay: In vivo activity tested against C3H mice bearing mammary adenocarcinoma -16c/ADR tumor measured as % treated/control calculated at 455 mg/kg (po); type: functional
Mus musculus [20] = assay: In vivo activity tested against C3H mice bearing colon adenocarcinoma -38(colon-38) tumor measured as % treated/control calculated at 195 mg/kg (po); type: functional
Mus musculus [21] = assay: In vivo activity tested against C3H mice bearing colon adenocarcinoma -38(colon-38) tumor measured as body weight loss at 195 mg/kg (po); type: functional
Mus musculus [22] = assay: In vivo activity tested against C3H mice bearing colon adenocarcinoma -38(colon-38) tumor measured as % treated/control calculated at 585 mg/kg (po); type: functional
Mus musculus [23] = assay: In vivo activity tested against C3H mice bearing mammary adenocarcinoma -16c/ADR tumor measured as body weight loss at 582 mg/kg (po); type: functional
Mus musculus [24] = assay: In vivo activity tested against C3H mice bearing mammary adenocarcinoma -17/ADR tumor measured as log Kill value was based on tumors that grew at 679 mg/kg (po); type: functional, organism-based; set-up: dose 679 mg/kg
Mus musculus [25] = assay: In vivo activity tested against C3H mice bearing mammary adenocarcinoma -17/ADR tumor measured as body weight loss at 679 mg/kg (po); type: functional
Mus musculus [26] = assay: In vivo activity tested against C3H mice bearing mammary adenocarcinoma -17/ADR tumor measured as body weight loss at 407.4 mg/kg (po); type: functional
Mus musculus [27] = assay: In vivo activity tested against C3H mice bearing mammary adenocarcinoma -17/ADR tumor measured as log Kill value was based on tumors that grew at 407.4 mg/kg (po); type: functional, organism-based; set-up: dose 407.4 mg/kg
Mus musculus [28] = assay: In vivo activity tested against C3H mice bearing mammary adenocarcinoma -17/ADR tumor measured as % treated/control calculated at 407.4 mg/kg (po); type: functional
Mus musculus [29] = assay: In vivo activity tested against C3H mice bearing mammary adenocarcinoma -16c/ADR tumor measured as % treated/control calculated at 582 mg/kg (po); type: functional
Mus musculus [30] = assay: In vivo activity tested against C3H mice bearing mammary adenocarcinoma -16c/ADR tumor measured as log Kill value was based on tumors that grew at 582 mg/kg (po); type: functional, organism-based; set-up: dose 582 mg/kg
Mus musculus [31] = assay: In vivo activity tested against C3H mice bearing colon adenocarcinoma -38(colon-38) tumor measured as log Kill value was based on tumors that grew at 195 mg/kg (po); type: functional, organism-based; set-up: dose 195 mg/kg
Mus musculus [32] = assay: In vivo activity tested against C3H mice bearing mammary adenocarcinoma -16c/ADR tumor measured as log Kill value was based on tumors that grew at 455 mg/kg (po); type: functional, organism-based; set-up: dose 455 mg/kg
Mus musculus [33] = assay: In vivo activity tested against C3H mice bearing mammary adenocarcinoma -16c/ADR tumor measured as body weight loss at 455 mg/kg (po); type: functional
Mus musculus [34] = assay: In vivo activity tested against C3H mice bearing colon adenocarcinoma -38(colon-38) tumor measured as log Kill value was based on tumors that grew at 585 mg/kg (po); type: functional, organism-based; set-up: dose 585 mg/kg
Mus musculus [35] = assay: In vivo activity tested against C3H mice bearing mammary adenocarcinoma -17/ADR tumor measured as % treated/control calculated at 679 mg/kg (po); type: functional
Mus musculus [36] = assay: In vivo activity tested against C3H mice bearing colon adenocarcinoma -38(colon-38) tumor measured as body weight loss at 585 mg/kg (po); type: functional
Mus musculus [37] = assay: In vivo activity tested against C3H mice bearing colon adenocarcinoma -38(colon-38) tumor measured as body weight loss at 1433 mg/kg (po); type: functional
Mus musculus [38] = assay: In vivo activity tested against C3H mice bearing colon adenocarcinoma -38(colon-38) tumor measured as % treated/control calculated at 1433 mg/kg (po); type: functional
Mus musculus [39] = assay: In vivo activity tested against C3H mice bearing colon adenocarcinoma -38(colon-38) tumor measured as log Kill value was based on tumors that grew at 1433 mg/kg (po); type: functional, organism-based; set-up: dose 1433 mg/kg
Mus musculus [40] = assay: In vivo activity tested against C3H mice bearing colon adenocarcinoma -38(colon-38) tumor measured as activity rating at 1433 mg/kg (po); type: functional

## CC(Oc1ccc(Oc2cnc3c(Cl)cccc3n2)cc1)C(=O)O (stereo not given)
Mus musculus [1]
  Log kill: inactive
Mus musculus [2]
  T/C: >100%
Mus musculus [3]
  Log kill: 0.27
Mus musculus [4]
  Body weight loss: -2%
Mus musculus [5]
  Activity rating: <0.7
Mus musculus [6]
  T/C: 59%
Mus musculus [7]
  Body weight loss: 2%

## CCOC(=O)C(C)Oc1ccc(Oc2cnc3cc(Cl)ccc3n2)cc1 (stereo not given) [QUIZALOFOP ETHYL ESTER]
Mus musculus [8]
  T/C: 61%
Mus musculus [9]
  Activity rating: <0.7
Mus musculus [10]
  Body weight loss: 0%
Mus musculus [11]
  Log kill: 0.42

## CC(Oc1ccc(Oc2cnc3cc(F)ccc3n2)cc1)C(=O)O (stereo not given)
Mus musculus [12]
  Log kill: 0.9
Mus musculus [13]
  T/C: 34%
Mus musculus [14]
  Body weight loss: 1%
Mus musculus [15]
  Activity rating: 1.2

## CC(Oc1ccc(Oc2cnc3ccc(Cl)cc3n2)cc1)C(N)=O (stereo not given)
Mus musculus [16]
  T/C: 7.3
Mus musculus [17]
  Log kill: 1.9
Mus musculus [18]
  Body weight loss: -3.6%

## COc1ccc2ncc(Oc3ccc(OC(C)C(=O)O)cc3)nc2c1 (stereo not given)
Mus musculus [19]
  T/C: 8%
Mus musculus [20]
  T/C: 90%
Mus musculus [21]
  Body weight loss: 0%
Mus musculus [22]
  T/C: 23%
Mus musculus [23]
  Body weight loss: -13.6%
Mus musculus [24]
  Log kill: 3
Mus musculus [25]
  Body weight loss: -4.6%
Mus musculus [26]
  Body weight loss: 0%
Mus musculus [27]
  Log kill: 1.7
Mus musculus [28]
  T/C: 6.4%
Mus musculus [29]
  T/C: 0%
Mus musculus [30]
  Log kill: 2.7
Mus musculus [31]
  Log kill: 0.12
Mus musculus [32]
  Log kill: 2.1
Mus musculus [33]
  Body weight loss: -1.2%
Mus musculus [34]
  Log kill: 1.73
Mus musculus [35]
  T/C: 4.6%
Mus musculus [36]
  Body weight loss: 0%

## COC(=O)C(C)Oc1ccc(Oc2cnc3ccc(F)cc3n2)cc1 (stereo not given)
Mus musculus [37]
  Body weight loss: 1%
Mus musculus [38]
  T/C: 34%
Mus musculus [39]
  Log kill: 0.8
Mus musculus [40]
  Activity rating: 1.2
